Here are results for 1 compound from patent US6852756B1, “Use of pleuromutilin derivatives for transdermal treatment of bacterial diseases” (Novartis Animal Health US Inc., priority 1999, dated 2005).

The nature of series [1]: Assessment of the systemic absorption of valnemulin after cutaneous administration (footbath / foot spray) in cattle; HPLC of blood and milk. In kind it is in vivo. The conditions noted are these: lactating cows, footbath Day 1 and Day 3, foot spray Day 5, 10% valnemulin solution. The source says:
(§1) 2. Assessment of the Systemic Absorption of Valnemulin-Type of Compounds After Cutaneous Administration in Cattle Type of administration: Footbath or directly as spray Test Protocol: Four lactating adult cows with clinical signs of Bovine Digital Dermatitis are recruited to the study. Blood and milk samples are taken before, and at intervals after application of a water/ethanol solution containing 10% valnemulin either as a footbath, or directly by spraying the feet. Test Formulation: Water/ethanol solution containing 10% valnemulin [table] Footbath solutions are prepared fresh each treatment day. A calculated quantity of test product is added to an estimated volume of water, which is placed in the footbath beforehand. The cows are driven individually into the footbath and made to stand there with their feet covered by footbath solution for 2 minutes. Foot spraying involves the use of a hand operated spraying device into which 100 ml of the test product are placed. Said 100 ml are distributed between the feet of each cow and applied directly to the lower leg areas and around and underneath each foot. Valnemulin content of samples is determined by a validated High Performance Liquid Chromatography (HPLC) method. Day 1; a.m. milking samples (50 ml/sample) are taken before the first treatment, thus serving as control measurements. […]

Series [2] deals with Bovine Digital Dermatitis. In words: Footbath / foot spray treatment of lactating cows with clinical signs of Bovine Digital Dermatitis (footrot). The conditions noted are these: four lactating cows; footbath Day 1 and Day 3, foot spray Day 5; 10% valnemulin solution; after one week. In kind it is in vivo, cattle. How it is done:
as §1, with “Disease: Footrot” for “2. Assessment of the Systemic Absorption of Valnemulin-Type of Compounds After Cutaneous Administration in Cattle”, “feet.” for “feet. Test Formulation: Water/ethanol solution containing 10% valnemulin [table]”, “foot.” for “foot. Valnemulin content of samples is determined by a validated High Performance Liquid Chromatography (HPLC) method. Day 1; a.m. milking samples (50 ml/sample) are taken before the first treatment, thus serving as control measurements.”

A short description of series [3]: Additional experiments: topical application as a spot on, tissue amounts, cattle. The series is classed as in vivo.
Series [4] in a line: Additional experiments: topical application as a spot on, tissue amounts, pigs. The series is classed as in vivo.
A short description of series [5]: Preliminary test: transdermal study in pigs (tissue, bile and plasma concentrations after cutaneous administration). In kind it is in vivo. The following applies: 2 × 25 mg/kg of body weight. How it is done: 1. Preliminary Test: Transdermal Study in Pigs [table] The test solution is administered cutaneously to the skin of the animal and the […], lung, skin, bile and plasma concentrations are determined. For determining the concentrations (μg/ml of plasma or g of tissue) a calibration curve of valnemulin in plasma is used. These investigations are not meant to determine the exact values but to provide only a yes or no answer.

[6] abbreviates: Animal No 1, water solution containing 10% valnemulin.
Where [7] appears, read: Animal No 2, 40% ethanol/water solution containing 10% valnemulin.

Take `C=C[C@]1(C)C[C@@H](OC(=O)CSC(C)(C)CNC(=O)[C@H](N)C(C)C)[C@]2(C)[C@H](C)CC[C@]3(CCC(=O)[C@H]32)[C@@H](C)[C@@H]1O` [valnemulin]: in series [1], the “valnemulin concentrations in blood samples” value is “found in most milk and blood samples”; the “valnemulin concentrations in milk samples” value is “found in most milk and blood samples”. Besides, in series [2], the “symptoms of footrot after treatment” value is on record as “none of the treated cows shows any symptoms of footrot”. For the same compound, the “amounts of active ingredient found in tissues (brain, liver, muscle, spleen, lung)” value in series [3] is given as “fairly high amounts”. For the same compound, the “amounts of active ingredient found in tissues (brain, liver, muscle, spleen, lung)” value in series [4] is on record as “fairly high amounts”. Further, in series [5] (setting [6]), the bile concentration is 0.155 μg/ml of plasma or g of tissue, the liver concentration is given as 0.175 μg/ml of plasma or g of tissue, the lung concentration was 0.916 μg/ml of plasma or g of tissue and the “plasma concentration 3 hours after 1st application” value is “<limit of detection”. In addition, in series [5] (setting [6]), the “plasma concentration 6 hours after 1st application” value is “<limit of detection” and the skin concentration is 39.056 μg/ml of plasma or g of tissue. For the same compound, in series [5] (setting [7]), the bile concentration entry is given as “<limit of detection”, the liver concentration is on record as 0.132 μg/ml of plasma or g of tissue, the lung concentration was 0.353 μg/ml of plasma or g of tissue and the “plasma concentration 3 hours after 1st application” value is “<limit of detection”. In series [5] (setting [7]), the “plasma concentration 6 hours after 1st application” value is 0.07 μg/ml of plasma or g of tissue and the skin concentration is given as 6.965 μg/ml of plasma or g of tissue.
